Source: ChEMBL document CHEMBL3860105, “Sulfonamide-Based Inhibitors of Aminoglycoside Acetyltransferase Eis Abolish Resistance to Kanamycin in Mycobacterium tuberculosis” (J Med Chem, 2016)

Experiments:
[1] = tested on: Mycobacterium tuberculosis H37Rv; details: 100 uM
[2] = tested on: Mycobacterium tuberculosis; experiment: Inhibition of Mycobacterium tuberculosis K204 acetyltransferase Eis assessed as potentiation of kanamycin A-induced antimicrobial activity by measuring kanamycin A MIC level at 100 uM pre-incubated for 24 hrs before kanamycin A addition followed by incubation for 6 days by alamar blue assay (Rvb kanamycin A alone MIC = 10 ug/ml)
[3] = tested on: Mycobacterium tuberculosis; experiment: Antimicrobial activity against Mycobacterium tuberculosis H37Rv at 100 uM incubation for 6 days by alamar blue assay; assay type: ADME; details: 144 h
[4] = tested on: Mycobacterium tuberculosis; experiment: Antimicrobial activity against Mycobacterium tuberculosis K204 at 100 uM incubation for 6 days by alamar blue assay; assay type: ADME; details: 144 h
[5] = tested on: Mycobacterium tuberculosis H37Rv; details: 37 uM
[6] = tested on: Mycobacterium tuberculosis; experiment: Inhibition of Mycobacterium tuberculosis K204 acetyltransferase Eis assessed as potentiation of kanamycin A-induced antimicrobial activity by measuring kanamycin A MIC level at 37 uM pre-incubated for 24 hrs before kanamycin A addition followed by incubation for 6 days by alamar blue assay (Rvb kanamycin A alone MIC = 10 ug/ml)
[7] = tested on: Mycobacterium tuberculosis H37Rv; details: 30 uM
[8] = tested on: Mycobacterium tuberculosis; experiment: Inhibition of Mycobacterium tuberculosis K204 acetyltransferase Eis assessed as potentiation of kanamycin A-induced antimicrobial activity by measuring kanamycin A MIC level at 30 uM pre-incubated for 24 hrs before kanamycin A addition followed by incubation for 6 days by alamar blue assay (Rvb kanamycin A alone MIC = 10 ug/ml)
[9] = tested on: Mycobacterium tuberculosis; experiment: Antimicrobial activity against Mycobacterium tuberculosis H37Rv at 30 uM incubation for 6 days by alamar blue assay; assay type: ADME; details: 144 h
[10] = tested on: Mycobacterium tuberculosis; experiment: Antimicrobial activity against Mycobacterium tuberculosis K204 at 30 uM incubation for 6 days by alamar blue assay; assay type: ADME; details: 144 h
[11] = tested on: Mycobacterium tuberculosis H37Rv
[12] = tested on: Mycobacterium tuberculosis; experiment: Inhibition of Mycobacterium tuberculosis K204 acetyltransferase Eis assessed as potentiation of kanamycin A-induced antimicrobial activity by measuring kanamycin A MIC level at […] pre-incubated for 24 hrs before kanamycin A addition followed by incubation for 6 days by alamar blue assay (Rvb kanamycin A alone MIC = 10 ug/ml)
[13] = tested on: Mycobacterium tuberculosis; experiment: Antimicrobial activity against Mycobacterium tuberculosis H37Rv at […] incubation for 6 days by alamar blue assay; assay type: ADME; details: 144 h
[14] = tested on: Mycobacterium tuberculosis; experiment: Antimicrobial activity against Mycobacterium tuberculosis K204 at […] incubation for 6 days by alamar blue assay; assay type: ADME; details: 144 h
[15] = tested on: Mycobacterium tuberculosis; details: 20 uM
[16] = tested on: Mycobacterium tuberculosis H37Rv; details: 23 uM
[17] = tested on: Mycobacterium tuberculosis; experiment: Inhibition of Mycobacterium tuberculosis K204 acetyltransferase Eis assessed as potentiation of kanamycin A-induced antimicrobial activity by measuring kanamycin A MIC level at 23 uM pre-incubated for 24 hrs before kanamycin A addition followed by incubation for 6 days by alamar blue assay (Rvb kanamycin A alone MIC = 10 ug/ml)
[18] = tested on: Mycobacterium tuberculosis; experiment: Antimicrobial activity against Mycobacterium tuberculosis H37Rv at 23 uM incubation for 6 days by alamar blue assay; assay type: ADME; details: 144 h
[19] = tested on: Mycobacterium tuberculosis; experiment: Antimicrobial activity against Mycobacterium tuberculosis K204 at 23 uM incubation for 6 days by alamar blue assay; assay type: ADME; details: 144 h
[20] = tested on: Mycobacterium tuberculosis H37Rv; details: 70 uM
[21] = tested on: Mycobacterium tuberculosis; experiment: Inhibition of Mycobacterium tuberculosis K204 acetyltransferase Eis assessed as potentiation of kanamycin A-induced antimicrobial activity by measuring kanamycin A MIC level at 70 uM pre-incubated for 24 hrs before kanamycin A addition followed by incubation for 6 days by alamar blue assay (Rvb kanamycin A alone MIC = 10 ug/ml)
[22] = tested on: Mycobacterium tuberculosis; experiment: Antimicrobial activity against Mycobacterium tuberculosis H37Rv at 70 uM incubation for 6 days by alamar blue assay; assay type: ADME; details: 144 h
[23] = tested on: Mycobacterium tuberculosis; experiment: Antimicrobial activity against Mycobacterium tuberculosis K204 at 70 uM incubation for 6 days by alamar blue assay; assay type: ADME; details: 144 h
[24] = tested on: Mycobacterium tuberculosis; experiment: Inhibition of Mycobacterium tuberculosis AAC(2')-Ic at 200 uM
[25] = tested on: Mycobacterium tuberculosis H37Rv; remark: listed apart in the source
[26] = tested on: Mycobacterium tuberculosis H37Rv; details: 25 uM
[27] = tested on: Mycobacterium tuberculosis; experiment: Inhibition of Mycobacterium tuberculosis K204 acetyltransferase Eis assessed as potentiation of kanamycin A-induced antimicrobial activity by measuring kanamycin A MIC level at 25 uM pre-incubated for 24 hrs before kanamycin A addition followed by incubation for 6 days by alamar blue assay (Rvb kanamycin A alone MIC = 10 ug/ml)
[28] = tested on: Mycobacterium tuberculosis; experiment: Antimicrobial activity against Mycobacterium tuberculosis H37Rv at 25 uM incubation for 6 days by alamar blue assay; assay type: ADME; details: 144 h
[29] = tested on: Mycobacterium tuberculosis; experiment: Antimicrobial activity against Mycobacterium tuberculosis K204 at 25 uM incubation for 6 days by alamar blue assay; assay type: ADME; details: 144 h
[30] = tested on: Mycobacterium tuberculosis; experiment: Antimicrobial activity against Mycobacterium tuberculosis H37Rv at 37 uM incubation for 6 days by alamar blue assay; assay type: ADME; details: 144 h
[31] = tested on: Mycobacterium tuberculosis; experiment: Antimicrobial activity against Mycobacterium tuberculosis K204 at 37 uM incubation for 6 days by alamar blue assay; assay type: ADME; details: 144 h
[32] = tested on: Mycobacterium tuberculosis H37Rv; details: 8 uM
[33] = tested on: Mycobacterium tuberculosis; experiment: Inhibition of Mycobacterium tuberculosis K204 acetyltransferase Eis assessed as potentiation of kanamycin A-induced antimicrobial activity by measuring kanamycin A MIC level at 8 uM pre-incubated for 24 hrs before kanamycin A addition followed by incubation for 6 days by alamar blue assay (Rvb kanamycin A alone MIC = 10 ug/ml)
[34] = tested on: Mycobacterium tuberculosis; experiment: Antimicrobial activity against Mycobacterium tuberculosis H37Rv at 8 uM incubation for 6 days by alamar blue assay; assay type: ADME; details: 144 h
[35] = tested on: Mycobacterium tuberculosis; experiment: Antimicrobial activity against Mycobacterium tuberculosis K204 at 8 uM incubation for 6 days by alamar blue assay; assay type: ADME; details: 144 h
[36] = tested on: Mycobacterium tuberculosis H37Rv; details: 10 uM
[37] = tested on: Mycobacterium tuberculosis; experiment: Inhibition of Mycobacterium tuberculosis K204 acetyltransferase Eis assessed as potentiation of kanamycin A-induced antimicrobial activity by measuring kanamycin A MIC level at 10 uM pre-incubated for 24 hrs before kanamycin A addition followed by incubation for 6 days by alamar blue assay (Rvb kanamycin A alone MIC = 10 ug/ml)
[38] = tested on: Mycobacterium tuberculosis; experiment: Antimicrobial activity against Mycobacterium tuberculosis H37Rv at 10 uM incubation for 6 days by alamar blue assay; assay type: ADME; details: 144 h
[39] = tested on: Mycobacterium tuberculosis; experiment: Antimicrobial activity against Mycobacterium tuberculosis K204 at 10 uM incubation for 6 days by alamar blue assay; assay type: ADME; details: 144 h

SMILES | MIC [1] [µg/mL] | MIC [2] [µg/mL] | Activity [3] | Activity [4] | also measured
CC(C)c1ccc(NS(=O)(=O)c2ccc3[nH]c(=O)c(=O)[nH]c3c2)cc1 | < 1.25 | 5 | Non-Toxic | Non-Toxic | 
Cc1cccc(N(C)S(=O)(=O)c2ccc3nc(O)c(O)nc3c2)c1 |  |  |  |  | MIC [5]: < 1.25 µg/mL; MIC [6]: 2.5 to 5 µg/mL
CN(c1cccc(F)c1)S(=O)(=O)c1ccc2[nH]c(=O)c(=O)[nH]c2c1 |  |  |  |  | MIC [7]: < 1.25 µg/mL; MIC [8]: 5 µg/mL; Activity [9]: Non-Toxic; Activity [10]: Non-Toxic
CCc1cccc(N(C)S(=O)(=O)c2ccc3[nH]c(=O)c(=O)[nH]c3c2)c1 |  |  |  |  | MIC [11]: < 1.25 µg/mL; MIC [12]: 5 to 10 µg/mL; Activity [13]: Non-Toxic; Activity [14]: Non-Toxic
O=c1[nH]c2ccc(S(=O)(=O)Nc3ccc(Br)cc3)cc2[nH]c1=O | < 1.25 | 5 | Non-Toxic | Non-Toxic | 
O=c1[nH]c2ccc(S(=O)(=O)Nc3ccc(Cl)c(C(F)(F)F)c3)cc2[nH]c1=O |  |  |  |  | fold change (FC) [15]: > 3
CC(C)c1cccc(N(C)S(=O)(=O)c2ccc3[nH]c(=O)c(=O)[nH]c3c2)c1 |  |  |  |  | MIC [16]: < 1.25 µg/mL; MIC [17]: 2.5 to 5 µg/mL; Activity [18]: Non-Toxic; Activity [19]: Non-Toxic
O=c1[nH]c2ccc(S(=O)(=O)Nc3ccccc3)cc2[nH]c1=O | < 1.25 | 10 | Non-Toxic | Non-Toxic | 
CN(c1ccccc1)S(=O)(=O)c1ccc2[nH]c(=O)c(=O)[nH]c2c1 | < 1.25 | 5 | Non-Toxic | Non-Toxic | 
CN(c1ccc2ccccc2c1)S(=O)(=O)c1ccc2[nH]c(=O)c(=O)[nH]c2c1 | < 1.25 | < 1.25 | Non-Toxic | Non-Toxic | 
CCCCc1cccc(N(C)S(=O)(=O)c2ccc3[nH]c(=O)c(=O)[nH]c3c2)c1 |  |  |  |  | MIC [20]: < 1.25 µg/mL; MIC [21]: 5 to 10 µg/mL; Activity [22]: Non-Toxic; Activity [23]: Non-Toxic
Cc1cc(NS(=O)(=O)c2ccc3[nH]c(=O)c(=O)[nH]c3c2)ccc1Br |  |  |  |  | fold change (FC) [15]: > 3
COc1cccc(N(C)S(=O)(=O)c2ccc3[nH]c(=O)c(=O)[nH]c3c2)c1 | < 1.25 | < 1.25 | Non-Toxic | Non-Toxic | inhibition [24]: 15%
CN(c1cccc(Br)c1)S(=O)(=O)c1ccc2[nH]c(=O)c(=O)[nH]c2c1 |  |  |  |  | MIC [25]: < 1.25 µg/mL; MIC [12]: 2.5 µg/mL; Activity [13]: Non-Toxic; Activity [14]: Non-Toxic
CC(C)c1ccc(N(C)S(=O)(=O)c2ccc3[nH]c(=O)c(=O)[nH]c3c2)cc1 |  |  |  |  | MIC [26]: < 1.25 µg/mL; MIC [27]: 2.5 to 5 µg/mL; Activity [28]: Non-Toxic; Activity [29]: Non-Toxic
Cc1cccc(N(C)S(=O)(=O)c2ccc3[nH]c(=O)c(=O)[nH]c3c2)c1 |  |  |  |  | Activity [30]: Non-Toxic; Activity [31]: Non-Toxic
O=c1[nH]c2ccc(S(=O)(=O)Nc3ccc4c(c3)OCCO4)cc2[nH]c1=O |  |  |  |  | fold change (FC) [15]: > 3
CN(c1cccc(C(C)(C)C)c1)S(=O)(=O)c1ccc2[nH]c(=O)c(=O)[nH]c2c1 | < 1.25 | 5 to 10 | Non-Toxic | Non-Toxic | 
CN(c1ccc(Br)cc1)S(=O)(=O)c1ccc2[nH]c(=O)c(=O)[nH]c2c1 |  |  |  |  | MIC [32]: < 1.25 µg/mL; MIC [33]: 2.5 µg/mL; Activity [34]: Non-Toxic; Activity [35]: Non-Toxic
CN(c1ccc(Cl)cc1)S(=O)(=O)c1ccc2[nH]c(=O)c(=O)[nH]c2c1 |  |  |  |  | MIC [36]: < 1.25 µg/mL; MIC [37]: 2.5 µg/mL; Activity [38]: Non-Toxic; Activity [39]: Non-Toxic
COc1ccccc1N(C)S(=O)(=O)c1ccc2[nH]c(=O)c(=O)[nH]c2c1 | < 1.25 | 10 | Non-Toxic | Non-Toxic | 
COc1cc(OC)cc(N(C)S(=O)(=O)c2ccc3[nH]c(=O)c(=O)[nH]c3c2)c1 | < 1.25 | 5 to 10 | Non-Toxic | Non-Toxic | 
COc1cc(N(C)S(=O)(=O)c2ccc3[nH]c(=O)c(=O)[nH]c3c2)cc2ccccc12 | < 1.25 | 10 | Non-Toxic | Non-Toxic | 
